In patent US20160235708A1, “TOPICAL PIGMENTORY COMPOSITION” (priority 2013, published 2016):

Experiments:
[1] = tested on: normal skin surrounding the vitiligo lesion; assay: Topical psoralen / PUVA therapy of vitiligo lesions: skin reaction around the lesion; assay type: in vivo
Source text: FIG. 1 A depicts hyper pigmentation surrounding vitiligo lesion following topical Psoralen therapy

[2] = tested on: vitiligo; conditions: monotherapy without ultra violet exposure; personal observation of N Ostovari; cited from earlier work

Row | Pigmentory change surrounding the vitiligo lesion (FIG. 1A) ([1]; following topical use) | SMILES | Skin reaction surrounding the vitiligo lesion (FIG. 1B) ([1]; two applications of 1.0% solution at alternate days, topical PUVA therapy) | Repigmenting potential [2]
1 | hyperpigmentation | COc1c2occc2cc2ccc(=O)oc12 [8 methoxypsoralen, 9-methoxy-7H-furo[3,2-g][1]-benzopyran-7-one] | Erythematous photo toxic reaction | 
2 |  | C=CC[C@@H]1/C=C(\C)C[C@H](C)C[C@H](OC)[C@H]2O[C@@](O)(C(=O)C(=O)N3CCCC[C@H]3C(=O)O[C@H](/C(C)=C/[C@@H]3CC[C@@H](O)[C@H](OC)C3)[C@H](C)[C@@H](O)CC1=O)[C@H](C)C[C@@H]2OC [tacrolimus] |  | little or no repigmenting potential
